Activity calls are given as the source filed them. The rule behind the calls is not given here.
Columns and labels:
[1] = target: T1, Sentrin-specific protease 2 (Homo sapiens) (UniProt Q9HC62); experiment: Inhibition of recombinant human SENP2 catalytic domain assessed as release of fluorescent AMC from SUMO-1-AMC preincubated at 10 to 100 uM for 10 mins before substrate addition by fluorescence assay
T1 sequence (whole entry): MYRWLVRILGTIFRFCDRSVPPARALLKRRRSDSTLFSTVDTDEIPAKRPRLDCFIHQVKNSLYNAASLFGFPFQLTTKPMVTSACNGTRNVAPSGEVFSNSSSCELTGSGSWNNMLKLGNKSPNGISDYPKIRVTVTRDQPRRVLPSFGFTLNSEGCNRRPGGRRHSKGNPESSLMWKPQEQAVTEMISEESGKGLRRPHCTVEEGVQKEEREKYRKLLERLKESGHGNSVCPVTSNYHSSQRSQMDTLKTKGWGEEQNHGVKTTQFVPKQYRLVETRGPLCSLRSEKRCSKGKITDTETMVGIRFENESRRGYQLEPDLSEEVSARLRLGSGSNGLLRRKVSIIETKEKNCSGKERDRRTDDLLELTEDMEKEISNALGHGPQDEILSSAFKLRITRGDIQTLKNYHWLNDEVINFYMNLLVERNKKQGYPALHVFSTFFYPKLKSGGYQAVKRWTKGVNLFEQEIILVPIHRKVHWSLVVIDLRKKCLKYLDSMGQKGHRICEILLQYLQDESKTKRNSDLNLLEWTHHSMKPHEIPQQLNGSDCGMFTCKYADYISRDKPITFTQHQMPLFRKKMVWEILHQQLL

HeLa [2] = experiment: Inhibition of hypoxia-induced HIF1alpha accumulation in human HeLa cells after 6 hrs by Western blot analysis; type: functional, cell-based
[3] = target: T2, Thermolysin (Bacillus thermoproteolyticus) (UniProt P00800); experiment: Inhibition of Bacillus thermoproteolyticus rokko thermolysin using FITC-Casein substrate at 10 to 100 uM by fluorescence assay
T2 sequence (whole entry): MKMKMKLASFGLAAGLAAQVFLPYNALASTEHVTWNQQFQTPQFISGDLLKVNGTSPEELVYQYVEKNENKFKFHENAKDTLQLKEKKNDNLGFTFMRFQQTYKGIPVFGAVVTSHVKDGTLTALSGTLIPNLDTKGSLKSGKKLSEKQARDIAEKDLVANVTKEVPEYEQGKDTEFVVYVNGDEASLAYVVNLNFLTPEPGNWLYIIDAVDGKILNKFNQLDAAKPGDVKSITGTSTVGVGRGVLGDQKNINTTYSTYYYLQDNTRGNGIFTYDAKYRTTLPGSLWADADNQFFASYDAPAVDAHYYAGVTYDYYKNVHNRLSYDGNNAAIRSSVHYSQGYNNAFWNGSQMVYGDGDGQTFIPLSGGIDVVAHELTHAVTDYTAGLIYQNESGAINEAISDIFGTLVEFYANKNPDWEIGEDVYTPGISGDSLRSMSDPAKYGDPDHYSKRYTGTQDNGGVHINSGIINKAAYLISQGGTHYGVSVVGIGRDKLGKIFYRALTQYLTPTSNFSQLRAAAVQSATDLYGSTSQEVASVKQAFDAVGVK

Bos taurus [4] = species on record: Bos taurus; experiment: Inhibition of bovine pancreatic chymotrypsin using FITC-Casein substrate at 10 to 100 uM by fluorescence assay
Bos taurus [5] = species on record: Bos taurus; experiment: Inhibition of bovine pancreatic trypsin using FITC-Casein substrate at 10 to 100 uM by fluorescence assay
HeLa [6] = details: Homo sapiens, 3 uM
Description: Inhibition of hypoxia-induced HIF1alpha accumulation in human HeLa cells at 3 uM after 6 hrs by Western blot analysis

SMILES	inhibition [1]	inhibition (HeLa [2])	inhibition [3]	inhibition (Bos taurus [4])	inhibition (Bos taurus [5])	inhibition (HeLa [6])
CCOC(=O)c1cccc(CNc2ccc(N(C)C(=O)Nc3ccccc3)cc2)c1	inactive	Dose-dependent effect	inactive	inactive	inactive	
COC(=O)c1cccc(CNc2ccc(N(C)C(=O)Nc3ccccc3)cc2)c1		Dose-dependent effect				Active

— ChEMBL document CHEMBL2177099, “Discovery of 1-[4-(N-benzylamino)phenyl]-3-phenylurea derivatives as non-peptidic selective SUMO-sentrin specific protease (SENP)1 inhibitors” (Bioorg Med Chem Lett, 2012)
